A short description of data set [1]: Gel breaking of guar gum mixture. The settings on record: for Viscosity at 2 Hour Contact Time: 10 g/L guar gum, 35-40 °C. Here is the method:
Example 15: Gel Breaking ability for well squeeze to remove “polymer damage”. The use of the sodium peracetate oxidant formulation was tested for the depolymerization and break down of guar gum. […] The guar mixture was made by rapidly mixing 10 g/L food grade guar gum powder into a 10 g/L sodium chloride solution in distilled water. The blended mixture was heated to about 35-40° C. in a heated water bath for at least one hour to fully hydrate the guar. The mixture appeared translucent with fine, milky white suspended solids. […] The first was a control sample to which no oxidant was added. The remaining samples had increasing amounts of sodium peracetate oxidant added to them. The oxidant was prepared as described in Example 4 and the pH was adjusted to about 9.1 with sodium bisulfate before use. The oxidant was rapidly mixed with the guar mixture resulting in a pale yellow color. The mixtures were placed in a water bath at about 35-40° C. and the yellow color gradually faded away over the next hour. After two hours the samples were cooled to room temperature.

The nature of data set [2]: ORP (oxidative-reductive potential) measurement of solutions and treated water. It counts as physicochemical. As to conditions: for ORP (mV vs SHE): early flowback water, Example 19, 1.7 mmol/L oxidant; for ORP (mV vs SHE), maximum: produced water. The procedure:
Example 9: Hydrogen Peroxide Residual Concentration and interference. A sodium peracetate oxidant solution was produced according to the procedure in Example 4 and diluted to 2800 mg/L (28.5 mmol/L) with either distilled water, for clean water conditions, or tap water containing about 0.18 mg/L copper, which served as an activation catalyst. Some samples were spiked with 30 or 60 mg/L (0.88 or 1.76 mmol/L, respectively) hydrogen peroxide from a 1000 mg/L stock solution. […] The temperature of the samples was maintained at 25±2° C. with a heated water bath. The ORP response was monitored over time to observe the impact of adding low concentrations of hydrogen peroxide. The pH was measured using a high sodium electrode (Oakton model 35805-05) with three point calibration and automatic temperature correction. The ORP (oxidative-reductive potential) of solutions was measured using an Oakton model 35805-15 ORP probe calibrated to the standard hydrogen electrode (SHE) using Thermo/Orion ORP standard 967901.
Water parameters were measured by a variety of methods. The pH was measured using a high sodium electrode (Oakton model 35805-05) with three point calibration and automatic temperature correction. The ORP (oxidative-reductive potential) of solutions was measured using an Oakton model 35805-15 ORP probe calibrated to the standard hydrogen electrode (SHE) using Thermo/Orion ORP standard 967901. Sodium ion concentration was measured using a Cole-Parmer ion selective electrode, EW-27504-30, with two point calibration of a sodium standard solution of NaCl. Chloride ion concentration was measured using a Cole-Parmer ion selective electrode, SC-27504-08, with two point calibration of a chloride standard solution of NaCl. All measurements using HACH methods were measured using a HACH DR900 colorimeter. Calcium, magnesium and total hardness concentrations were measured using HACH method 8030. Sulfate concentration was measured using HACH method 10248. Aluminum concentration was measured using HACH method 8012. Iron concentration was measured using HACH method 10249 modified with a longer reaction time to minimize interferences from organic impurities. Total suspended solids (TSS) concentration was measured using HACH method 8006 modified for smaller volumes. Turbidity was measured using HACH method 8237. ATP (adenosine triphosphate) concentration was measured using the LuminUltra 2nd Generation metabolic ATP measurement technology with the LuminUltra Quench Gone-Organic Modified sampling method, a PhotonMaster Luminometer and LumiCalc software. Acid producing bacteria (ABP) and sulfate reducing bacteria (SRB) cell culture concentrations were measured with standard 1 mL serial dilutions using Intertek APB and SRB culture media, 1% salinity.

The mark [3] stands for this setting: Piceance produced water, pH 7.00, 22 °C, 500 mg/L initial dose.

Each structure is given as a SMILES string.

`CC(=O)O[O-].[Na+]` [sodium peracetate oxidant, sodium peracetate]: the entries for the “Viscosity at 2 Hour Contact Time” value in data set [1] (oxidant conc. 65 mg/L), in data set [1] (oxidant conc. 220 mg/L) and in data set [1] (oxidant conc. 440 mg/L) were “same as initial”, “slightly reduced” and “very reduced”, respectively. For the same molecule, the “preservation of guar mixture on standing at room temperature” value in data set [1] (about 65 mg/L oxidant, control lost viscosity overnight, biofilm after a week) is “retained its original viscosity and milky color for at least a week”. The “ORP, rapid initial increase” value is listed as roughly 800 mV vs SHE in data set [2] (Piceance produced water, pH 7.00, 22 °C, 100 mg/L initial dose) and “about 890 mV vs SHE” in data set [2] (setting [3]). The ORP after decline result in data set [2] (Piceance produced water, pH 7.00, 22 °C, 100 mg/L initial dose, after 120 minutes) was “about 470 mV”. Besides, the “ORP, later level” value in data set [2] (setting [3]) is listed as “about 1040 mV vs SHE”. The ORP entry in data set [2] (Piceance produced water, first 26 mg/L dose of sequential dosing) is “more than 800 mV vs SHE”; in data set [2] (Piceance produced water, single dose 78 mg/L, in less than 60 minutes), “below 600 mV vs SHE”. The molecule also had an ORP maximum in data set [2] (Piceance produced water, single dose 78 mg/L (60 mg/L as PAA)) of 870 mV vs SHE. Further, the “ORP (mV vs SHE)” value came to 701 mV vs SHE in data set [2] (contact time 3 minutes), 581 mV vs SHE in data set [2] (contact time 13 minutes), 446 mV vs SHE in data set [2] (contact time 35 minutes) and 420 mV vs SHE in data set [2] (contact time 90 minutes). Also, the “ORP of water drawn from the frac tanks” value in data set [2] (frac on the fly make-up water, about 15 minute contact time) is listed as “less than 500 mV”. The “ORP (mV vs SHE), maximum” value in data set [2] (Example 17, 29 mg/L) is listed as “over 700 mV vs SHE”; in data set [2] (Example 17, 29 mg/L plus 5 mg/L floc aid), “over 700 mV vs SHE”; in data set [2] (Example 17, 29 mg/L plus 5 mg/L floc aid, listed as Sodium Peracetate Oxidant), 770 mV vs SHE; in data set [2] (Example 17, 29 mg/L, listed as Sodium Peracetate Oxidant), 766 mV vs SHE; in data set [2] (Example 17, 52 mg/L), “over 800 mV vs SHE”; in data set [2] (Example 17, 52 mg/L, listed as Sodium Peracetate Oxidant), 809 mV vs SHE. Besides, in data set [2] (Example 18, 0.30 mmol/L oxidant), the “ORP (mV vs SHE), maximum” value came to 766 mV vs SHE.
